In US11767323B2, “Tricyclic pyridone compounds as JAK2 V617F inhibitors” (Incyte Corporation, priority 2020, dated 2023):
pIC50: −log10 of the molar value.

Key:
[1] = biological target: pseudo-kinase domain (JH2, amino-acids 536-812) of human V617F mutant JAK2 (Homo sapiens (Human), UniProt O60674, F794H/V617F/W659A/W777A); assay: JAK2 LanthaScreen JH2-V617F Binding Assay; conditions: JAK2 JH2-V617F 0.26 nM, 50 nM tracer, 1 hour at 25° C.; read-out: JH2 BIND V617F IC50
Method in brief: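 Competition of compounds with a fluorescent tracer (50 nM) for the biotinylated domain (0.26 nM), detected via streptavidin-Tb (0.25 nM) after 1 h at 25° C in pH 7.5 Tris buffer containing glycerol, BSA and Brij-35. ATP at 2 mM gave background. IC50 by four-parameter fit.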

[2] = biological target: catalytic domain (JH1, amino acids 808-1132) of human JAK2 (Homo sapiens (Human), UniProt O60674); assay: JAK2 HTRF Enzyme Activity Assay; format: biochemical; conditions: JAK2 0.015 nM, ATP (30 μM or 1 mM), 60 minutes at 25° C.
[3] = biological target: catalytic domain (JH1, amino acids 826-1132) of human JAK2 (Homo sapiens (Human), UniProt O60674); assay: JAK2 LanthaScreen JH1 Binding Assay; conditions: JAK2 JH1 1.5 nM, 50 nM tracer, 2 hours at 25° C.; read-out: JH1 BIND IC50
Method in brief: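 FLAG-tagged biotinylated JAK2 JH1 (1.5 nM) incubated with compounds, 50 nM fluorescent tracer and 0.5 nM streptavidin-Tb in Tris pH 7.5 buffer with MgCl2, BSA, DTT, 2 h at 25 °C.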

[4] = biological target: pseudo-kinase domain (JH2, amino-acids 536-812) of human Wild Type JAK2 (Homo sapiens (Human), UniProt O60674, F794H/W659A/W777A); assay: JAK2 LanthaScreen JH2-WT Binding Assay; conditions: JAK2 JH2-WT 0.145 nM, 50 nM tracer, 1 hour at 25° C.; read-out: JH2 BIND WT IC50
Method in brief: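 Biotinylated His-Avi-tagged JH2 construct carrying W659A/W777A/F794H surface mutations, 0.145 nM, incubated 1 h at 25° C with compound, 50 nM fluorescent JH2 tracer and 0.25 nM streptavidin-Tb in pH 7.5 Tris buffer. Non-specific binding defined with 2 mM ATP. TR-FRET read; IC50 from four-parameter fit.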

Sequence of catalytic domain (JH1, amino acids 808-1132) of human JAK2 (O60674 808-1132): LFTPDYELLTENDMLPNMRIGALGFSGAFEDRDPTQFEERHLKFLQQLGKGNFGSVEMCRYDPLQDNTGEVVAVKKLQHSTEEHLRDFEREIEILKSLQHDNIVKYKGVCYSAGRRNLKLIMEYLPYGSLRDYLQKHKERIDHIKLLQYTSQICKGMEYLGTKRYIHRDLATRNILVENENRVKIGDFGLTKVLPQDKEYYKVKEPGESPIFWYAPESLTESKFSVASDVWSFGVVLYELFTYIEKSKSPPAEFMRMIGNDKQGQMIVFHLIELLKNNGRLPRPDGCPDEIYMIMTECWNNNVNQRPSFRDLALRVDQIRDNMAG
Sequence of pseudo-kinase domain (JH2, amino-acids 536-812) of human Wild Type JAK2 (O60674 536-812 W659A/W777A/F794H): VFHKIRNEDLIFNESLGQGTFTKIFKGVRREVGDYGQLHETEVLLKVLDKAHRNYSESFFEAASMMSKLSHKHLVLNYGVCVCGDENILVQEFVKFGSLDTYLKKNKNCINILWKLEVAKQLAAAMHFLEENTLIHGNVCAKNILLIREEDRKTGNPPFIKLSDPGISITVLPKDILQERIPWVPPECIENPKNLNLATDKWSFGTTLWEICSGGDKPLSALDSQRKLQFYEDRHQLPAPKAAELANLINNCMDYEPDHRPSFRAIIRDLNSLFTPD
Sequence of pseudo-kinase domain (JH2, amino-acids 536-812) of human V617F mutant JAK2 (O60674 536-812 V617F/W659A/W777A/F794H): as the sequence (O60674 536-812 W659A/W777A/F794H) above, with V82F counted along it
Sequence of catalytic domain (JH1, amino acids 826-1132) of human JAK2 (O60674 826-1132): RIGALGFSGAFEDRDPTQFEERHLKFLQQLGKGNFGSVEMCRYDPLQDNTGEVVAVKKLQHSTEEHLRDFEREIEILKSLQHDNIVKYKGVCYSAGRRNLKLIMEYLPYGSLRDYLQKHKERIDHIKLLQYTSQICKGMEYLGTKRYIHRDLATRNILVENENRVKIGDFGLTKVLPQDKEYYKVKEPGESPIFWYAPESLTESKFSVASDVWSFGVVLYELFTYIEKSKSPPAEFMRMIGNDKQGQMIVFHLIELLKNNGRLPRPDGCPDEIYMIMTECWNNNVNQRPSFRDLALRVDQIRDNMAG

Structure (SMILES)	pIC50 [1]	pIC50 [2]	pIC50 [3]	pIC50 [4]
Cc1ccc(-c2c(C)c3c4cc(-c5ccc(CN6CCC(S(C)(=O)=O)CC6)cc5)[nH]c4ncc3n(C)c2=O)cc1 [Example 9, 6,9-Dimethyl-2-(4-((4-(methylsulfonyl)piperidin-1-yl)methyl)phenyl)-8-(p-tolyl)-3,6-dihydro-7H-pyrrolo[3,2-f][1,7]naphthyridin-7-one]	≥ 7.00	≥ 7.00	≥ 7.00	≥ 7.00
CS(=O)(=O)C1CCN(Cc2ccc(-c3cc4c(ncc5[nH]c(=O)c(C#N)cc54)[nH]3)cc2)CC1 [Example 3, 2-(4-((4-(Methylsulfonyl)piperidin-1-yl)methyl)phenyl)-7-oxo-6,7-dihydro-3H-pyrrolo[3,2-f][1,7]naphthyridine-8-carbonitrile]	5.00 to 6.00	< 5.00	< 5.00	5.00 to 6.00
CN(C)C(=O)c1cc2c3c(-c4ccc(C5(C#N)CC5)cc4)c(-c4cnn(C)c4)[nH]c3ncc2n(C)c1=O [Example 44, 1-(4-(1-cyanocyclopropyl)phenyl)-N,N,6-trimethyl-2-(1-methyl-1H-pyrazol-4-yl)-7-oxo-6,7-dihydro-3H-pyrrolo[3,2-f][1,7]naphthyridine-8-carboxamide]	≥ 7.00	5.00 to 6.00	5.00 to 6.00	≥ 7.00
Cn1nccc1-c1cc2c(cnc3[nH]c(-c4ccc(CN5CCC(S(C)(=O)=O)CC5)cc4)cc32)[nH]c1=O [Example 4, 8-(1-Methyl-1H-pyrazol-5-yl)-2-(4-((4-(methylsulfonyl)piperidin-1-yl)methyl)phenyl)-3,6-dihydro-7H-pyrrolo[3,2-f][1,7]naphthyridin-7-one]	5.00 to 6.00	5.00 to 6.00	5.00 to 6.00	5.00 to 6.00
COCCS(=O)(=O)C1CCN(c2cc3c4c(-c5ccc(C(=O)N(C)C)cc5)c(-c5cnn(C)c5)[nH]c4ncc3n(C)c2=O)CC1 [Example 40, 4-(8-(4-((2-Methoxyethyl)sulfonyl)piperidin-1-yl)-6-methyl-2-(1-methyl-1H-pyrazol-4-yl)-7-oxo-6,7-dihydro-3H-pyrrolo[3,2-f][1,7]naphthyridin-1-yl)-N,N-dimethylbenzamide]	6.30 to 7.00	5.00 to 6.00	5.00 to 6.00	6.30 to 7.00
Cc1cc(-c2c(C3CCOCC3)c3c4cc(-c5ccc(CN6CCC(S(C)(=O)=O)CC6)cc5)[nH]c4ncc3n(C)c2=O)on1 [Example 21, 6-Methyl-8-(3-methylisoxazol-5-yl)-2-(4-((4-(methylsulfonyl)piperidin-1-yl)methyl)phenyl)-9-(tetrahydro-2H-pyran-4-yl)-3,6-dihydro-7H-pyrrolo[3,2-f][1,7]naphthyridin-7-one]	≥ 7.00	6.30 to 7.00	6.30 to 7.00	≥ 7.00
Cn1c(=O)c(-c2ccc(C(=O)O)cc2)cc2c3cc(-c4ccc(CN5CCC(S(C)(=O)=O)CC5)cc4)[nH]c3ncc21 [Example 14, 4-(6-Methyl-2-(4-((4-(methylsulfonyl)piperidin-1-yl)methyl)phenyl)-7-oxo-6,7-dihydro-3H-pyrrolo[3,2-f][1,7]naphthyridin-8-yl)benzoic acid]	≥ 7.00	6.30 to 7.00	6.30 to 7.00	≥ 7.00
CN(C)C(=O)c1ccc(-c2c(-c3cnn(C)c3)[nH]c3ncc4c(cc(N5CCC6(CCOC6)CC5)c(=O)n4C)c23)cc1 [Example 41, N,N-dimethyl-4-(6-methyl-2-(1-methyl-1H-pyrazol-4-yl)-7-oxo-8-(2-oxa-8-azaspiro[4.5]decan-8-yl)-6,7-dihydro-3H-pyrrolo[3,2-f][1,7]naphthyridin-1-yl)benzamide]	6.00 to 6.30	5.00 to 6.00	5.00 to 6.00	6.30 to 7.00
